Values after ≈ are worked out from the molar mass of the structure shown. Structures can show the parent of a compound that is named as a salt. Where two headings read alike, the source gives them in different places.
Tests used:
Solubility = format: physicochemical
Description: A stir bar was put in the vial. The vials were closed with caps and placed on stir plate. […] After equilibration, the samples were centrifuged. An accurate aliquot of clear solution was transferred to a HPLC vial by micropipette. The solubility was determined by HPLC with UV detector and against standard.

[1] = Pharmacokinetic studies in male beagle dogs; format: in vivo, beagle dog
Description: Compound 34 (634A in tables and on plots) was dosed as a solid as well as in solution form to male beagle dogs according to the following protocol. Plasma samples were analyzed using the following methods:
Blood samples from the test animals were drawn at periodic intervals, before, and after administration of the test articles. The samples were dispensed into chilled (˜+4° C.) blood tubes containing EDTA anticoagulant which were stored “on ice” (˜+4° C.) prior to centrifugation and separation of the plasma fractions. The plasma samples were transferred to frozen storage (−20° C.) within 30 minutes of blood sampling.
The plasma samples were thawed at room temperature, vortex-mixed for 10 seconds, and 100 μL aliquots transferred to 96-well micro-plates. […]
The supernatant fractions of the wells were transferred to a fresh micro-plate and then evaporated to dryness at 37° C. under a stream of (O2-free) nitrogen. The well residues were reconstituted in 100 μL volumes of acetonitrile:water:acetic acid (40:59.9:0.1 v/v/v) and 20 μL volumes were analyzed by HPLC-MS-MS. […]
The measurement of signal peaks areas, calibration and quantification were carried out using the Turbo-Quan V1.5 (Sciex Inc.) data acquisition and processing software (DAQ) suite. […]

[2] = Oral bioavailability in male Sprague-Dawley rats; format: in vivo, Sprague-Dawley (CD) rat; conditions: for AUC(0-inf): rat, plasma
Description: Methods used were generally as described in Example 53, with the following modifications: Sample Collection—In addition to anticoagulant (EDTA), an enzyme inhibitor cocktail containing 50 μL of 100 mM AEBSF (4-(2-aminoethyl)benzenessulfonylfluoride HCl, CalBioChem, cat. no. 101500); 200 mM Benzamide(CalBioChem, cat. no. 199001); and 200 mM EACA (Epislon Amino-n-caproic acid, CalBioChem cat. no. 1381) in FTA Hemaglutionation Buffer (Becton Dickson, cat. no. 4311248) per 1 mL of blood was added to rat blood samples at the time of collection.
HPLC-MS-MS Conditions—Chromatography was performed on a Phenomenex Aqua C18 HPLC Mercury Cartridge (3-micron particle size, 20 mm×2 mm id) or Luna C18 column (50×2 mm).

Nev-R mutant virus = assay: Anti-HIV activity of parent compounds, Nev-R mutant virus (Table 1; HeLa-CD4-LTR-β-gal cell assay); format: cell-based, HIV-1; conditions: Human immunodeficiency virus 1, read-out: Nev-R
Description: (§1) The HeLa cell assay was performed according to a modifcation of Kimpton J. and Emerman M., Detection of replication-competent and pseudotyped human inmmunodeficiency virus with a sensitive cell line on the basis of activation of an integrated β-galactosidase gene, J. Virol. 66:2232-2239 (1992), in which HIV-1 infection is detected by the activation of an HIV-LTR driven β-galactosidase reporter that is integrated into the genome of a CD4^+ HeLa cell line. Quantitation of β-galactosidase is achieved by measuring the activation of a chemiluminescent substrate (Tropix). The concentration of each compound required to inhibit 50% (IC50) of the HIV-1 induced β-galactosidase signal, relative to untreated controls, was determined for each isogenic, recombinant virus.
(§2) HeLa-CD4-LTR-β-gal cells are propagated in DMEM containing 10% fetal bovine serum+0.2 mg/ml geneticin+0.1 mg/ml hygromycin B. Cells are split by standard trypsinization when confluency reaches 80% (roughly every 2 to 3 days).
(§3) DNA encoding the HIV-1 reverse transcriptase was subcloned from a M13 phage into a general shuttle vector, pBCSK+, as a ˜1.65 kbp EcoRI/HindIII ended DNA fragment. The HIV DNA insert of the resulting plasmid, pRT2, was completely sequenced on both strands prior to use in site directed mutagenesis experiments. Specific amino acid replacements were made using Stratagene Quick Change reagents and mutagenic oligonucleotides from Oligos. […]
(§4) Mutant HIV-1 strains were isolated by a modified Recombinant Virus Assay (Kellamn P. and Larder B., Recombinant virus assay: a rapid, phenotypic assay for assessment of drug susceptibility of human immunodeficiency virus type 1 isolates, Antimicrobial Agents and Chemotherapy, 38:23-30,1994). […] Transfected cell cultures were expanded and monitored until syncitia formation and CPE were extensive. […]
(§5) HIV-1 virus stocks must be titered in the MAGI assay system to establish the appropriate infecting dose. The endpoint for this assay is relative light units (RLUs), and titer is recorded as RLUs/ml. […]

HIV-1 wild type virus = assay: Anti-HIV activity of parent compounds, wild type virus (Table 1; HeLa-CD4-LTR-β-gal cell assay); format: cell-based; conditions: Human immunodeficiency virus 1, read-out: Wt
Description: as §1, §2, §3, §4, §5

SMILES: CCC(=O)NS(=O)(=O)c1ccc(NC(=O)COc2ccc(Cl)cc2C(=O)c2cc(Cl)cc(C#N)c2)c(C)c1.[Ca] [Calcium salt, 2-[4-chloro-2-(3-chloro-5-cyanobenzoyl)phenoxy]-N-{2-methyl-4-[(propionylamino)sulfonyl]phenyl}acetamide, Calcium Salt, Form 2]
- solubility (Solubility; water, Crystal Form 2): 0.7 mg/mL

SMILES: CCC(=O)NS(=O)(=O)c1ccc(NC(=O)COc2ccc(Cl)cc2C(=O)c2cc(Cl)cc(C#N)c2)c(C)c1 [Compound 34, 2-[4-chloro-2-(3-chloro-5-cyanobenzoyl)phenoxy]-N-{2-methyl-4-[(propionylamino)sulfonyl]phenyl}acetamide, Sodium Salt]
- solubility (Solubility; water, thermodynamic from solid, water, Amorphous, read-out: Solubility): > 100 mg/mL
- solubility (Solubility; water, thermodynamic from solid, water, Crystal Form 1, read-out: Solubility): 92 mg/mL
- solubility (Solubility; water, thermodynamic from solid, water, Crystal Form 4, read-out: Solubility): 2.5 mg/mL
- solubility (Solubility; water, thermodynamic from solid, water, Crystal Form 9, read-out: Solubility): > 100 mg/mL
- solubility (Solubility; water, thermodynamic from solid, water, Crystal Form 10, read-out: Solubility): > 100 mg/mL
- solubility (Solubility; water, thermodynamic from solid, water, Crystal Form 12, read-out: Solubility): > 100 mg/mL
- appearance of active inhibitor compound 40 in plasma after administration [1]: appears in the plasma
- bioavailability after oral administration (in words) ([1]; oral): excellent bioavailability
- appearance of active inhibitor compound 40 in plasma after administration [2]: appears in the plasma
- bioavailability after oral administration (in words) ([2]; oral, in comparison to the parent compound 40): improved bioavailability

SMILES: Cc1cc(S(N)(=O)=O)ccc1NC(=O)COc1ccc(Cl)cc1C(=O)c1cc(Cl)cc(C#N)c1 [Compound 40, N-[4-(aminosulfonyl)-2-methylphenyl]-2-[4-chloro-2-(3-chloro-5-cyanobenzoyl)phenoxy]acetamide]
- IC50 (Nev-R mutant virus): 0.4 to 1.2 nM
- solubility (Solubility; fassgf or other biorelevant, thermodynamic from solid, SIF, Crystal Form 1, read-out: Solubility): 0.0029 mg/mL (≈ 5.59 µM)
- Mean Exposures of 40 Fapp ([2]; free acid, Amorph., PO (soln) 1 mg/kg, DMSO:Tween-80:5% Mannitol (20:0.1:79.9)): 7%
- AUC(0-inf) ([2]; free acid, Amorph., IV 1 mg/kg, PEG400:Solutol:Water (30:20:50), read-out: Mean Exposures of 40 AUC0-∞): 1740 ± 363 ng·h/mL
- AUC(0-inf) ([2]; free acid, Amorph., PO (soln) 1 mg/kg, DMSO:Tween-80:5% Mannitol (20:0.1:79.9), n = 1, read-out: Mean Exposures of 40 AUC0-∞): 128 ng·h/mL
- IC50 (HIV-1 wild type virus): 0.5 to 1.8 nM

SMILES: CCC(=O)NS(=O)(=O)c1ccc(NC(=O)COc2ccc(Cl)cc2C(=O)c2cc(Cl)cc(C#N)c2)c(C)c1 [Compound 41, 2-[4-chloro-2-(3-chloro-5-cyanobenzoyl)phenoxy]-N-{2-methyl-4-[(propionylamino)sulfonyl]phenyl}acetamide]
- solubility (in words) (Solubility; in comparison with compound 40): improved solubility

SMILES: Cc1cc(S(N)(=O)=O)ccc1NC(=O)COc1ccc(Cl)cc1C(=O)c1cc(C#N)cc(C(F)(F)F)c1 [Compound 58]
- IC50 (Nev-R mutant virus): 0.9 nM
- IC50 (HIV-1 wild type virus): 2.4 nM

SMILES: Cc1cc(S(N)(=O)=O)ccc1NC(=O)COc1ccc(Cl)cc1C(=O)c1cc(F)cc(C(F)(F)F)c1 [Compound 71]
- IC50 (Nev-R mutant virus): 0.4 to 14 nM
- IC50 (HIV-1 wild type virus): 0.1 to 28 nM
